The IC50 is the midpoint of a concentration-inhibition curve.

Results on seven compounds are retold here after patent US11623919B2, “Heterocyclic P2X7 antagonists” (AXXAM S.P.A., priority 2017, dated 2023).

Structures are written as SMILES.

Holding throughout (format): cell-based
The target in assay [1] is T1, P2X7 receptor (Homo sapiens, UniProt Q99572).
T1 sequence (Q99572 1-595): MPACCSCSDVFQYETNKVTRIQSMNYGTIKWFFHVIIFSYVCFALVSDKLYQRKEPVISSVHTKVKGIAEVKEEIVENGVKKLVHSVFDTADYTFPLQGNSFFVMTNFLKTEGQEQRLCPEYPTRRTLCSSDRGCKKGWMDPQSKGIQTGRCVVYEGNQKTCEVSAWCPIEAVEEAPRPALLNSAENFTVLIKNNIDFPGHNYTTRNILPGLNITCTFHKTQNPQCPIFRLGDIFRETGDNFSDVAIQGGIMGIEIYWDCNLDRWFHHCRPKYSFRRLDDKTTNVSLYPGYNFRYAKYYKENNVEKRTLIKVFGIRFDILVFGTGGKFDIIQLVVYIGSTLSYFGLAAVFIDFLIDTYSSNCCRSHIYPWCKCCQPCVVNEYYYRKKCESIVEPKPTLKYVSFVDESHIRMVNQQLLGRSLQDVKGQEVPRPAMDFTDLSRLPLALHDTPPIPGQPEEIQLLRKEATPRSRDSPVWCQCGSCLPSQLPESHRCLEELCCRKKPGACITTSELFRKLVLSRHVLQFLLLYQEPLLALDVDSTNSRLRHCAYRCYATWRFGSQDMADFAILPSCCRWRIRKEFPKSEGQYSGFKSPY
The experiment in a line: YO-PRO-1 uptake assay. Conditions: HEK-293 cells stably transfected with P2X7 receptor; Bz-ATP EC80 (30 μM); Low Divalent Cation Assay Buffer. The arrangement: expressed in transfected cells. An excerpt: YO-PRO®-1 is a fluorescent DNA-binding dye with a MW of 374 Da (Molecular Probes®, cat. Y3603). This method is based upon the presumed ability of YO-PRO®-1 to enter through the dilated or “large pore form” of P2X7 receptor and to bind to intracellular DNA whereupon it increases many fold its fluorescence intensity. The dye ha an absorption spectrum compatible with excitation at 488 nm by argon laser sources and its emission wavelength is in the range of 515-575 nm. The aim of this assay was to validate the interaction of antagonists with P2X7 receptor using an alternative readout to Ca2+-sensitive fluorescent dyes.
HEK-293 cells stably transfected with P2X7 receptor were seeded overnight un growth medium at 20,000 cell/well in 384-well plate. 24 hours later, the medium was removed, the cells were washed with Low Divalent Cation Assay Buffer (0.3 mM Ca^2+ and 0 mM Mg^2+) and then pre-loaded with 20 μL/w of 5 μM YO-PRO®-1 dye.
FLIPRTETRA fluorescence measurement immediately started. Then 10 μL/w of test compounds and reference antagonist A438079 at 3×-concentration were injected with the FLIPRTETRA and the kinetic response over a period of five minutes was monitored. A second injection of 10 μL/w of 3× Bz-ATP EC80 (30 μM) was performed with the FLIPRTETRA and the signal of the emitted fluorescence was recorded for additional 60 minutes. All the experiment was carried out with a Low Divalent Cation Assay Buffer (0.3 mM Ca^2+ and 0 mM Mg^2+).
The effect of the test compounds was measured as percent inhibition vs the reference antagonist and IC50 values were calculated accordingly.

The target of assay [2] is T1, P2X7 receptor. As to the kind of experiment: Automated patch-clamp (QPatch16X) P2X7 channel assay. Conditions: HEK-293 cells expressing P2X7 channels; whole-cell, held at -80 mV; 100 microM BzATP; compound 1, 10, 100 and 1000 nM; read-out: Q-Patch (IC50). On the set-up: expressed in transfected cells; host or cells: HEK-293. In short, it runs like this: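 Whole-cell patch clamp was run at room temperature on HEK-293 cells expressing P2X7, held at −80 mV with CsF internal and pH 7.4 NaCl external solutions. Currents were evoked by 100 µM BzATP alone and then with compound at 1, 10, 100 and 1000 nM. Peak inward currents were normalized and fitted to a Hill equation to give IC50.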
(In general: The patch-clamp technique gives a direct electrical read-out from membranes.)

The target of assay [3] is T1, P2X7 receptor. As to the kind of experiment: Screen Quest Fluo-8 No Wash Calcium Assay (Bz-ATP evoked Ca2+ influx, FLIPR). Conditions: hP2X7; HEK-293 cells stably transfected with P2X7 receptor, Bz-ATP at EC80, Fluo-8 NW; potency ranges A-D. The arrangement: hP2X7 (IC50; nM); other: hP2X7; HEK-293 cells stably transfected with P2X7 receptor, Bz-ATP at EC80, Fluo-8 NW; potency. An outline of the steps:
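HEK-293 cells stably expressing P2X7 were loaded with Fluo-8 NW for 1 h at RT, then given compound, and 5 min later Bz-ATP at EC80. Fluorescence was read by FLIPR in low divalent cation buffer (0.3 mM Ca2+, 0 mM Mg2+). IC50 came from percent inhibition relative to reference antagonist A438079.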

As for `O=c1onc(Cc2c(F)cccc2Cl)n1CC1CC2CCC1C2` (stereo not drawn) [Example 88, 4-{bicyclo[2.2.1]heptan-2-ylmethyl}-3-[(2-chloro-6-fluorophenyl)methyl]-4,5-dihydro-1,2,4-oxadiazol-5-one], the IC50 in assay [1] is 63 nM; in assay [2], 34.5 nM; in assay [3] it was < 200 nM.
The corresponding values for `O=c1onc(Cc2c(F)cccc2Cl)n1CCC1CCCCC1` [Example 142, 3-(2-chloro-6-fluorobenzyl)-4-(2-cyclohexylethyl)-1,2,4-oxadiazol-5(4H)-one] are 467 nM, 153 nM and 200 to 1000 nM.
Take `O=c1onc(Cc2c(F)cccc2Cl)n1Cc1ccc(F)cc1F` [Example 61, 3-[(2-chloro-6-fluorophenyl)methyl]-4-[(2,4-difluorophenyl)methyl]-4,5-dihydro-1,2,4-oxadiazol-5-one]: the results for the IC50 in assay [1], in assay [2] and in assay [3] were 293 nM, 149 nM and 200 to 1000 nM, respectively.
Consider `O=c1onc(Cc2ccc(F)cc2)n1Cc1c(F)cccc1Cl` [Example 1, 4-[(2-chloro-6-fluorophenyl)methyl]-3-[(4-fluorophenyl)methyl]-4,5-dihydro-1,2,4-oxadiazol-5-one], for which the values for the IC50 in assay [1], in assay [2] and in assay [3] were 581 nM, 247 nM and 200 to 1000 nM, respectively.
On to `O=c1onc(Cc2cccc(F)c2)n1Cc1c(F)cccc1Cl` [Example 81, 4-[(2-chloro-6-fluorophenyl)methyl]-3-[(3-fluorophenyl)methyl]-4,5-dihydro-1,2,4-oxadiazol-5-one], for which the values for the IC50 in assay [1], in assay [2] and in assay [3] were 619 nM, 292 nM and 200 to 1000 nM, respectively.
As for `CC1(C)CCC(Cn2c(Cc3c(F)cccc3Cl)noc2=O)CC1` [Example 86, 3-[(2-chloro-6-fluorophenyl)methyl]-4-[(4,4-dimethylcyclohexyl)methyl]-4,5-dihydro-1,2,4-oxadiazol-5-one], the IC50 was 111 nM in assay [1], 154 nM in assay [2] and 200 to 1000 nM in assay [3].
For the compound `O=c1onc(Cc2c(F)cccc2Cl)n1CC1CCCC1` [Example 85, 3-[(2-chloro-6-fluorophenyl)methyl]-4-(cyclopentylmethyl)-4,5-dihydro-1,2,4-oxadiazol-5-one], the IC50 was 131 nM in assay [1], 167 nM in assay [2] and < 200 nM in assay [3].
